Test results reported in publication PMC7522982, “PKIS deep dive yields a chemical starting point for dark kinases and a cell active BRSK2 inhibitor” (Scientific Reports, 2020).

Key:
BRSK1 [1] = target: T1, BRSK1 (Homo sapiens, UniProt Q8TDC3); parameters: purchased Eurofins DiscoverX Corporation; method as in earlier work; conditions: cited from earlier work
T1 sequence (Q8TDC3 1-778): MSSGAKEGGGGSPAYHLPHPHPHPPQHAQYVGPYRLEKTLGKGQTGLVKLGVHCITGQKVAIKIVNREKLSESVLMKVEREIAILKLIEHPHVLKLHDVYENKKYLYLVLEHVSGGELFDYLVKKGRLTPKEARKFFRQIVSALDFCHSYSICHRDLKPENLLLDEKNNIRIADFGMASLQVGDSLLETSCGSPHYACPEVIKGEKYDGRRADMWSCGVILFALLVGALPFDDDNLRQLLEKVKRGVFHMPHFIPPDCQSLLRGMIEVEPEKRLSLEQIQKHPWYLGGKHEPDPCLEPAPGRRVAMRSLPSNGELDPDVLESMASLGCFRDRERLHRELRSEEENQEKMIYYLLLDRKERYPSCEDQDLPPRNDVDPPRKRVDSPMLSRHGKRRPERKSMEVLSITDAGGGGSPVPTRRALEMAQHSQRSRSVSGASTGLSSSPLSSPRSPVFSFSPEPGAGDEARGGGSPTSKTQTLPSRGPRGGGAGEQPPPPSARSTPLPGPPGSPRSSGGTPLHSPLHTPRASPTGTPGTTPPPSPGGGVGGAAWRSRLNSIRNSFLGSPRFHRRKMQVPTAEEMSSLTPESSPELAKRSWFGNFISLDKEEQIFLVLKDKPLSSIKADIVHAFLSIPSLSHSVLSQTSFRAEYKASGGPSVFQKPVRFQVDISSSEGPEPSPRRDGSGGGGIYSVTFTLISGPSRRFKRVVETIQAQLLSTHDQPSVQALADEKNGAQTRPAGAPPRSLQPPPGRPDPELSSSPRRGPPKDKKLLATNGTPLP

CHEK1 = target: T2, CHEK1 (Homo sapiens, UniProt O14757); experiment: DiscoverX scanMAX competition binding assay; conditions: read-out: % inhibition at 1 μM
T2 construct: purchased Eurofins DiscoverX Corporation

DCLK3/DCAMKL3 = DCLK3/DCAMKL3 (Homo sapiens, UniProt Q9C098); experiment: DiscoverX scanMAX competition binding assay; parameters: purchased Eurofins DiscoverX Corporation
From the text: (§1) Based on its narrow profile when tested in the combined Nanosyn and TSA panels, GW296115 was included in the recently released Kinase Chemogenomic Set (KCGS)[15]. All of the data presented in the Introduction section was collected prior to the inclusion of GW296115 in KCGS and everything that follows has been subsequently generated. Since its inclusion in PKIS and more recently KCGS, we have carried out a broader round of screening at DiscoverX. This profiling data has not been previously released and is reported here for the first time. GW296115 was profiled against 403 wild type human kinases at 1 μM using the DiscoverX scanMAX screening platform, which employs an active site-directed competition binding assay to quantitatively measure interactions between test compounds and kinases, [16]. GW296115 inhibited 25 kinases > 90% at 1 μM, resulting in a selectivity index (S10) of 0.062 at 1 μM (Table S2, Fig. 1C)[17].
(§2) The scanMAX assays were performed at Eurofins DiscoverX Corporation as previously described.

PIM2 = PIM2 (Homo sapiens, UniProt Q9P1W9); experiment: DiscoverX scanMAX competition binding assay; parameters: purchased Eurofins DiscoverX Corporation
From the text: as §1, §2

DMPK = DMPK (Homo sapiens, UniProt Q09013); experiment: DiscoverX scanMAX competition binding assay; parameters: purchased Eurofins DiscoverX Corporation
From the text: as §1, §2

BRSK1 [2] = target: T1, BRSK1; experiment: DiscoverX scanMAX competition binding assay; parameters: purchased Eurofins DiscoverX Corporation
From the text: as §1, §2

BRSK2 [3] = target: T3, BRSK2 (Homo sapiens, UniProt Q8IWQ3); experiment: DiscoverX scanMAX competition binding assay; parameters: purchased Eurofins DiscoverX Corporation
T3 sequence (Q8IWQ3 1-736): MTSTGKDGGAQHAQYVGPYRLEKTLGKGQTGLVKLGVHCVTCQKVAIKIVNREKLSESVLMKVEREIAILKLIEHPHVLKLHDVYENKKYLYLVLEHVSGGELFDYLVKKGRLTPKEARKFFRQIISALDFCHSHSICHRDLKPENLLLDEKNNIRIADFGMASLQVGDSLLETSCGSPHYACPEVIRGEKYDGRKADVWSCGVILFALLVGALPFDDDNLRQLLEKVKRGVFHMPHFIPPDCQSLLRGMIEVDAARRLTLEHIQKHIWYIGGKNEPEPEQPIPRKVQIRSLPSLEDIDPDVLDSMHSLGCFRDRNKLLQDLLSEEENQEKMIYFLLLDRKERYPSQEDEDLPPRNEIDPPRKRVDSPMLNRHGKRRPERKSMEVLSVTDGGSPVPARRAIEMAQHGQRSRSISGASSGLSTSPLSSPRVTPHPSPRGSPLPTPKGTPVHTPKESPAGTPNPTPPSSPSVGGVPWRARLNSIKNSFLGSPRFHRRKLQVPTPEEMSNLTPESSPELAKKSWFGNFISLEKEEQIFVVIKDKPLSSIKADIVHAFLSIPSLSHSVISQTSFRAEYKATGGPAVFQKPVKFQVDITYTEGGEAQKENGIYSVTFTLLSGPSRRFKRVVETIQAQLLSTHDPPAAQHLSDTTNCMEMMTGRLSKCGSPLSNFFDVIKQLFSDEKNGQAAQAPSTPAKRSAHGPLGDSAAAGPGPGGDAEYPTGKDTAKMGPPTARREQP
From the text: as §1, §2

ROS1 = ROS1 (Homo sapiens, UniProt P08922); experiment: DiscoverX scanMAX competition binding assay; parameters: purchased Eurofins DiscoverX Corporation
From the text: as §1, §2

RSK3 = test system: RSK3; parameters: method as in earlier work; conditions: cited from earlier work
PDGFRβ = test system: PDGFRβ; parameters: method as in PMID 26501955; conditions: cited from earlier work
BRSK2 [4] = target: T3, BRSK2; parameters: purchased Eurofins DiscoverX Corporation; method as in earlier work; conditions: cited from earlier work

DCLK3/DCAMKL3, sequence (Q9C098 whole entry): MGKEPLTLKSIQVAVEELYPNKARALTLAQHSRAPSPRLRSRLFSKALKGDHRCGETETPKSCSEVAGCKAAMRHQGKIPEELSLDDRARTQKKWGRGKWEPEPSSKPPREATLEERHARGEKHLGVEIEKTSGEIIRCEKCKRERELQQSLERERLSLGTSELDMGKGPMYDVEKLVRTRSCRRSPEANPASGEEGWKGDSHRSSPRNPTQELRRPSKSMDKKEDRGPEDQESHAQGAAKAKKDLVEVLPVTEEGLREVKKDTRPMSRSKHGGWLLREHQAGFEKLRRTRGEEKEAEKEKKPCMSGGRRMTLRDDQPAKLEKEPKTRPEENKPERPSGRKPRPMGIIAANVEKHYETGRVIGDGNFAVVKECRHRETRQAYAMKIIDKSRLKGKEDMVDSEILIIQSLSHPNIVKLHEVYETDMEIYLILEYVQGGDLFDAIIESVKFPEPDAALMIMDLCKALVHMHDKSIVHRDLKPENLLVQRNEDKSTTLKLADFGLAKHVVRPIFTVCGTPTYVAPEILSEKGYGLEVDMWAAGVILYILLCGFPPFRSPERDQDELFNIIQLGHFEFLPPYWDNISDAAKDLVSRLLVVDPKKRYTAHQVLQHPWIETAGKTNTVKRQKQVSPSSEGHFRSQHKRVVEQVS
PIM2, sequence (Q9P1W9 whole entry): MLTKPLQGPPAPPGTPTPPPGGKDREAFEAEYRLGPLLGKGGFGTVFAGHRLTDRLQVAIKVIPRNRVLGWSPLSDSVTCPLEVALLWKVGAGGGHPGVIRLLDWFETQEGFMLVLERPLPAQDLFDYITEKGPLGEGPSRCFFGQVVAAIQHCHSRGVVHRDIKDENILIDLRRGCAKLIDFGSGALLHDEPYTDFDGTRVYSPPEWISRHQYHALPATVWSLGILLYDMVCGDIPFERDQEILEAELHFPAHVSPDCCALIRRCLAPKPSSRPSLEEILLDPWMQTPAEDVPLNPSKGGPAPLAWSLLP
DMPK, sequence (Q09013 whole entry): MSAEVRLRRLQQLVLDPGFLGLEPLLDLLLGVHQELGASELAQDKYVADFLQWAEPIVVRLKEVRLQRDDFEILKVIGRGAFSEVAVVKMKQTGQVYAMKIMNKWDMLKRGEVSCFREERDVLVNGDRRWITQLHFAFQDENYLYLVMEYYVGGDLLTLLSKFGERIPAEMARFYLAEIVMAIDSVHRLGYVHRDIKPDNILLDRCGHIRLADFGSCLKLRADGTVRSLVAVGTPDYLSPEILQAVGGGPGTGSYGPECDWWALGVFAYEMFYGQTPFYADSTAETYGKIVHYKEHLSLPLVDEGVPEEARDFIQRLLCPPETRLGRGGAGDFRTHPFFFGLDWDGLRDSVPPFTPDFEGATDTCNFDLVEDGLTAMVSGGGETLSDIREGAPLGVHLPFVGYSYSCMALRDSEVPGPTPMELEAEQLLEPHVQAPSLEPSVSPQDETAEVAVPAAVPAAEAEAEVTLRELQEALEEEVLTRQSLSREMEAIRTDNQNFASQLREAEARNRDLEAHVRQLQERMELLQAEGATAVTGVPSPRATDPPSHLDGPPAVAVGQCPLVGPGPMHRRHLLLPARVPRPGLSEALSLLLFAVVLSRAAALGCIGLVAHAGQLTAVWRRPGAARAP
T2 sequence (O14757 whole entry): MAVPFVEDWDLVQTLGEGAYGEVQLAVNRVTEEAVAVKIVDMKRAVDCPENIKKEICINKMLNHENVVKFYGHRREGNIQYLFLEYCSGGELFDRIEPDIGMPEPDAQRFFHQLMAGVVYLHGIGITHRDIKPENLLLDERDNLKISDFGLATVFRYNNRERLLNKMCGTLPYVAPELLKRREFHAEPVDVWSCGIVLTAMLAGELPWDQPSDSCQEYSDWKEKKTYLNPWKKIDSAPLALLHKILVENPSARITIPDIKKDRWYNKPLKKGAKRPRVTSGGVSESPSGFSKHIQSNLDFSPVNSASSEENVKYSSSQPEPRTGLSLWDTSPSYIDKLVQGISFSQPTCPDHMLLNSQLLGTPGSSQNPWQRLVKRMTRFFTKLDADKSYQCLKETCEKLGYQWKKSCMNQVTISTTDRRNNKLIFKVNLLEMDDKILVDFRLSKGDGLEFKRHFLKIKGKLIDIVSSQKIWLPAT
ROS1, sequence (P08922 28-2347): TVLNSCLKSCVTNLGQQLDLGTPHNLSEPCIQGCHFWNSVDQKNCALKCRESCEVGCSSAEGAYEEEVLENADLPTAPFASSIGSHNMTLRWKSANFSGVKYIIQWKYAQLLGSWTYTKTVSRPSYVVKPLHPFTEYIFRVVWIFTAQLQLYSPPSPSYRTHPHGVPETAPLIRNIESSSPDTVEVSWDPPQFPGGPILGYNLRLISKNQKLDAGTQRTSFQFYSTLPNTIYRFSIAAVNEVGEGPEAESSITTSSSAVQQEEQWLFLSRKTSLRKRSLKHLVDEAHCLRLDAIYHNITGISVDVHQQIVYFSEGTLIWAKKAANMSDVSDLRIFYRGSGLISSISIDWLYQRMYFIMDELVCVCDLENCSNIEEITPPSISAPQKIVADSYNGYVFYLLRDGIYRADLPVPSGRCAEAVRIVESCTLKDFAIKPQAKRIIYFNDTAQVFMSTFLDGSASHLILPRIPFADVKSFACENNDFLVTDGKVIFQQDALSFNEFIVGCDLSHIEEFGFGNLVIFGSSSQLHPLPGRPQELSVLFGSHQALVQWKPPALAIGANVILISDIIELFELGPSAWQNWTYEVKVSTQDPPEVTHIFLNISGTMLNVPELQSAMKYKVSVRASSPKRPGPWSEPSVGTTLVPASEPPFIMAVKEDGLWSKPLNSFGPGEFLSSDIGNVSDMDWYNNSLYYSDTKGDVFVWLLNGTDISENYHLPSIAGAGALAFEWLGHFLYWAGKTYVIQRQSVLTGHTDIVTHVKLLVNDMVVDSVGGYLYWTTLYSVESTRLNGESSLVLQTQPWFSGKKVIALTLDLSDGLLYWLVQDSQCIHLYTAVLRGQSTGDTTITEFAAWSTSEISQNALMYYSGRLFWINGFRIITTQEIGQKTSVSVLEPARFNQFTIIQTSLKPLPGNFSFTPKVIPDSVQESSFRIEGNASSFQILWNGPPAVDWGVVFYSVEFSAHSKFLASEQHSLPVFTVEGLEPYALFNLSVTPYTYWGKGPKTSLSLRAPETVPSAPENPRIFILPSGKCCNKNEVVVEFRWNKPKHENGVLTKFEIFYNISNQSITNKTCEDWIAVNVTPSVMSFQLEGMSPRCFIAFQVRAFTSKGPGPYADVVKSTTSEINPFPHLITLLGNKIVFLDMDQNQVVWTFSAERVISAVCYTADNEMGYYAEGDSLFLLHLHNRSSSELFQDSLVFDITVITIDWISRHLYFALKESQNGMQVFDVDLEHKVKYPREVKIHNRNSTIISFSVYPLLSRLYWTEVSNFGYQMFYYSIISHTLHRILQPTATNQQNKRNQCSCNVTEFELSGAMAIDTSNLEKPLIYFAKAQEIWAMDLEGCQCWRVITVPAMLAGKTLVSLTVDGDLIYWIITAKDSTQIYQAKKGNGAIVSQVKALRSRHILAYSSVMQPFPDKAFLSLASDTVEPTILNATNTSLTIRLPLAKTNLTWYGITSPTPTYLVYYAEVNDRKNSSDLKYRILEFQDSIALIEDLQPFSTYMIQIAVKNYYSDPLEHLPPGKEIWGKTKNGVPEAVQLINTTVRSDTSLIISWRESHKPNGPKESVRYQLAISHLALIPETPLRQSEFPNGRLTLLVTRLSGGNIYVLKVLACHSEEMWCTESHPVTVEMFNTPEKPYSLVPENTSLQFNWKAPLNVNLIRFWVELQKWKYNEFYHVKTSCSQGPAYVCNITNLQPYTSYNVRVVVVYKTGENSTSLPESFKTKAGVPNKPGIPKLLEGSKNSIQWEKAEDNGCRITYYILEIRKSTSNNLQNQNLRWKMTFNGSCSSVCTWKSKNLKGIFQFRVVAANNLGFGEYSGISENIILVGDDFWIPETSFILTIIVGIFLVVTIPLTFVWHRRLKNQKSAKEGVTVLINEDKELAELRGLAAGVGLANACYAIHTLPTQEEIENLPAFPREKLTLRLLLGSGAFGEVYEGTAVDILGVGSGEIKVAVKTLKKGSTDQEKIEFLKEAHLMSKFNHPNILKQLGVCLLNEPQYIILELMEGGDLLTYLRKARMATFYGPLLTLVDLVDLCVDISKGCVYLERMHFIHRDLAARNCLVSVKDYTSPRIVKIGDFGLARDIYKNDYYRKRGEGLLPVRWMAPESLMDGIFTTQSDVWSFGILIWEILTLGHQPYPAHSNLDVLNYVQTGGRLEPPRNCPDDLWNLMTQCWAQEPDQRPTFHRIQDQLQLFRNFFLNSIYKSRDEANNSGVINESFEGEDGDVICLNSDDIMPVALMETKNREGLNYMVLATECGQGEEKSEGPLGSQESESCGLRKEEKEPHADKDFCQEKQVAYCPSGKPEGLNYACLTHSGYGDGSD

COc1ccc2[nH]c3c4[nH]c5ccc(OC)cc5c4c4c(c3c2c1)C(=O)NC4=O [GW296115]
Nanosyn % Inhibition at 1 μM (BRSK1 [1]): 102%
inhibition at 1 µM (CHEK1): 70%
inhibition at 1 µM (DCLK3/DCAMKL3): 83%
inhibition at 1 µM (PIM2): 83%
inhibition at 1 µM (DMPK): 75%
inhibition at 1 µM (BRSK1 [2]): 82%
inhibition at 1 µM (BRSK2 [3]): 83%
inhibition at 1 µM (ROS1): 76%
Nanosyn % Inhibition at 1 μM (RSK3): 92%
Nanosyn % Inhibition at 1 μM (PDGFRβ): 85%
Nanosyn % Inhibition at 1 μM (BRSK2 [4]): 95%
